From BindingDB's records for doi:10.7270/Q2Q52N1X (Vanderbilt Screening Center for GPCRs, Ion Channels and …, 2009)
pEC50: −log10 of the molar value.

target: T1, Solute carrier family 12 member 5 (Homo sapiens, UniProt Q9H2X9); assay: concentration-response of KCC2 transport modulators – cell-based, HEK293 KCC2, FluoZin-2 fluorescence, dose response (AID 1736); conditions: not given
T1 sequence (Q9H2X9 whole entry): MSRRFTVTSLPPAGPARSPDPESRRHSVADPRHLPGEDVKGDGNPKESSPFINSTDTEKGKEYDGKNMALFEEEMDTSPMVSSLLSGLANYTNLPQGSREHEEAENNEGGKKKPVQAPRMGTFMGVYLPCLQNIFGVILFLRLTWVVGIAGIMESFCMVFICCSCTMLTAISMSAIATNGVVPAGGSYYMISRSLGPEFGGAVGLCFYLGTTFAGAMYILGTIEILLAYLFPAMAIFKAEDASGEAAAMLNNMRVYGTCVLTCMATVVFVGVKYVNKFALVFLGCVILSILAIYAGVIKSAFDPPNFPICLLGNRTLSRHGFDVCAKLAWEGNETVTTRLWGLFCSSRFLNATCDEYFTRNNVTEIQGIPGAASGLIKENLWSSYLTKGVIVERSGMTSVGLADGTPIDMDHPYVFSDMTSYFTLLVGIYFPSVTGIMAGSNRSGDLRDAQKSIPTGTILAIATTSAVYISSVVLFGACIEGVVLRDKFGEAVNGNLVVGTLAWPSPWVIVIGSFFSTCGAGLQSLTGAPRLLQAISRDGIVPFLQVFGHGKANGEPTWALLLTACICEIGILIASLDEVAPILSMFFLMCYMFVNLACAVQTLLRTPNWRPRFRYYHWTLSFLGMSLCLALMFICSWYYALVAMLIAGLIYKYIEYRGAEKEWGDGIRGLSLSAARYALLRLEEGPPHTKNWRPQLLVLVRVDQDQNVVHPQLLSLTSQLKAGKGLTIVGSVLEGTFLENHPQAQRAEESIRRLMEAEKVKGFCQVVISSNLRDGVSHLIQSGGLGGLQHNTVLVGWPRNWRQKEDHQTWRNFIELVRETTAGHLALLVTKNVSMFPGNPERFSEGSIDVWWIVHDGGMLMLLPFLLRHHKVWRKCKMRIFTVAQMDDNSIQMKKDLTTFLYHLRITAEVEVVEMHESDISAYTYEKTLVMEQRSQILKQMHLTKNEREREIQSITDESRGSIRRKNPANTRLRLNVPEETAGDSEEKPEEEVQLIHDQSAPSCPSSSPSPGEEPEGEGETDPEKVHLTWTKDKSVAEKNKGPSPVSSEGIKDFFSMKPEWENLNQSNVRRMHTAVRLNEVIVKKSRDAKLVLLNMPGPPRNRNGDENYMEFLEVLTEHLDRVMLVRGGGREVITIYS

SMILES | pEC50
O=C(NNc1nc(-c2ccccc2)cs1)c1cccs1 [MLS000858987] | 6.60
Cc1noc(C)c1S(=O)(=O)N1CCC(C(=O)N2CCN(c3ccc(F)cc3)CC2)CC1 [1-({1-[(3,5-dimethylisoxazol-4-yl)sulfonyl]piperidin-4-yl}carbonyl)-4-(4-fluorophenyl)piperazine] | 5.12
CC(=O)NCC1CCCN(c2nc3nonc3nc2N(C)Cc2ccccc2)C1 (stereo not given) [MLS000731683] | 5.77
O=C(O)CCn1c(SCc2cccc3ccccc23)nc2ccccc21 [3-[2-(1-naphthalenylmethylthio)-1-benzimidazolyl]propanoic acid] | 6.21
C=CCn1c(Cc2cccs2)nnc1SCC(=O)c1ccc2ccccc2c1 [1-(2-naphthalenyl)-2-[[4-prop-2-enyl-5-(thiophen-2-ylmethyl)-1,2,4-triazol-3-yl]thio]ethanone] | 5.30
COc1ccc(-c2cc(CCCC(=O)NCCc3ccccc3)no2)cc1 [4-[5-(4-methoxyphenyl)-1,2-oxazol-3-yl]-N-(2-phenylethyl)butanamide] | 5.74
Cc1[nH]c2ccccc2c1Cc1nnc(S)o1 | 5.80
CN(Cc1ccccc1)c1nc2nonc2nc1N1CCCC(CN2CCCC2=O)C1 (stereo not given) [1-[(1-{6-[benzyl(methyl)amino][1,2,5]oxadiazolo[3,4-b]pyrazin-5-yl}piperidin-3-yl)methyl]pyrrolidin-2-one] | 2.04
COc1ccc(-c2cc(CNC(=O)CN(C)Cc3ccccc3)on2)cc1 [2-[benzyl(methyl)amino]-N-[[3-(4-methoxyphenyl)-1,2-oxazol-5-yl]methyl]acetamide] | 4.82
COc1ccc(N(CC(=O)Nc2cccc(C)c2C)S(=O)(=O)c2c(C)n[nH]c2C)cc1 [N-(2,3-dimethylphenyl)-2-[(3,5-dimethyl-1H-pyrazol-4-yl)sulfonyl-(4-methoxyphenyl)amino]ethanamide] | 4.80
CC1Cc2ccccc2N1C(=O)c1ccc(N2CCCCC2)c([N+](=O)[O-])c1 (stereo not given) [(2-methyl-2,3-dihydroindol-1-yl)-(3-nitro-4-piperidin-1-yl-phenyl)methanone] | 5.80
O=C(NC1CCCC1)C(c1ccncc1)N(Cc1ccco1)C(=O)c1ccc(-c2ccccc2)[nH]1 (stereo not given) [MLS000718066] | 5.20
CC(NNC(=O)c1ccc(Br)cc1)=C1C(=O)c2ccccc2C1=O [SMR000116009] | 5.81
CC1CCCCN1C(=O)CSc1nnc(-c2c[nH]c3ccccc23)o1 (stereo not given) | 4.97
N#Cc1nc(-c2cccs2)oc1N1CCN(Cc2ccccc2)CC1 [5-(4-benzyl-1-piperazinyl)-2-(2-thienyl)-1,3-oxazole-4-carbonitrile] | 4.93
O=C(OC1CCc2ccccc2C1=O)c1ccccc1O (stereo not given) [MLS000051417] | 6.28
O=C(CN1C(=O)NC2(CCCC2)C1=O)Nc1nc(-c2ccc(F)cc2)cs1 [2-(2,4-diketo-1,3-diazaspiro[4.4]nonan-3-yl)-N-[4-(4-fluorophenyl)thiazol-2-yl]acetamide] | 6.64
Cc1cc(C)c(C#N)c(N2CCN(Cc3ccccc3)CC2)n1 [2-(4-benzyl-1-piperazinyl)-4,6-dimethylnicotinonitrile] | 4.71
O=C(Nc1ccc(Cc2ccncc2)cc1)c1cccc([N+](=O)[O-])c1 [3-Nitro-N-(4-pyridin-4-ylmethyl-phenyl)-benzamide] | 5.03
CC(NC(=O)CCc1nnc(-c2ccc(-c3ccccc3)cc2)o1)c1nccs1 (stereo not given) [3-(5-biphenyl-4-yl-1,3,4-oxadiazol-2-yl)-N-[1-(1,3-thiazol-2-yl)ethyl]propanamide] | 5.32
Cc1ccc2oc(-c3ccc(C)c(NC(=S)NC(=O)c4cccs4)c3)nc2c1 [1-[2-Methyl-5-(5-methyl-benzooxazol-2-yl)-phenyl]-3-(thiophene-2-carbonyl)-thiourea] | 6.70
O=C(c1ccccc1SCc1ccc(F)cc1)N1CCOCC1 [MLS000712999] | 5.05

SMILES | pEC50
O=C(O)CC/C(=C\c1ccc(N2CCOCC2)c([N+](=O)[O-])c1)c1nc2ccccc2s1 [(E)-4-(1,3-benzothiazol-2-yl)-5-(4-morpholin-4-yl-3-nitro-phenyl)pent-4-enoic acid] | 1.09
Cc1cc([N+](=O)[O-])ccc1NCc1ccccc1 [2-methyl-4-nitro-N-(phenylmethyl)aniline] | 4.50
COc1cc(C(=S)N2CCOCC2)cc(OC)c1OC(=O)Cc1ccccc1 [(2,6-dimethoxy-4-morpholin-4-ylcarbothioyl-phenyl) 2-phenylethanoate] | 5.94
O=C(CSc1ccc(-c2ccccc2)nn1)Nc1ccc2c(c1)OCCO2 [MLS000724887] | 4.51
O=C(c1cc(COc2c(F)cccc2F)on1)N1CCC(c2ccncc2)CC1 [4-[1-({5-[(2,6-difluorophenoxy)methyl]isoxazol-3-yl}carbonyl)piperidin-4-yl]pyridine] | 4.91
Cc1noc(/C=C/c2ccco2)c1S(=O)(=O)N1CCC(C(=O)N2CCc3ccccc3C2)CC1 [2-{[1-({5-[(E)-2-(2-furyl)vinyl]-3-methylisoxazol-4-yl}sulfonyl)piperidin-4-yl]carbonyl}-1,2,3,4-tetrahydroisoquinoline] | 5.27
CCOc1ccc(C(CC(=O)O)NC(=O)C(Sc2ccccc2)c2ccccc2)cc1 (stereo not given) [3-(4-ethoxyphenyl)-3-[(2-phenyl-2-phenylsulfanyl-ethanoyl)amino]propanoic acid] | 4.87
O=C(Nc1cccnc1)c1ccc(COc2ccccc2Br)o1 [5-[(2-bromanylphenoxy)methyl]-N-pyridin-3-yl-furan-2-carboxamide] | 5.28
O=C(NCC1CCCN(C(=O)c2cccnc2)C1)c1ccc(-c2ccccc2)cc1 (stereo not given) [4-phenyl-N-[(1-pyridin-3-ylcarbonylpiperidin-3-yl)methyl]benzamide] | 6.18
N#CC(C(=O)c1cccc(F)c1)c1nc2ccccc2s1 (stereo not given) [(2Z)-2-(3H-1,3-benzothiazol-2-ylidene)-3-(3-fluorophenyl)-3-keto-propionitrile] | 5.02
Cn1c(C(=O)NCCCN2CCN(c3ccccc3F)CC2)cc2c(=O)n(C)c3ccccc3c21 [MLS000118127] | 5.15
O=C(Cn1nnc2c(cnn2-c2ccccc2)c1=O)N1CCN(c2ccccc2F)CC1 [3-[2-[4-(2-fluorophenyl)-1-piperazinyl]-2-oxoethyl]-7-phenyl-4-pyrazolo[3,4-d]triazinone] | 4.81
Cc1ccc(Nc2nnc(SCC(=O)c3ccc(Br)s3)s2)c(C)c1 [1-(5-bromanylthiophen-2-yl)-2-[[5-[(2,4-dimethylphenyl)amino]-1,3,4-thiadiazol-2-yl]sulfanyl]ethanone] | 5.99
O=C(CNC(=O)/C(=C/c1ccccc1)NC(=O)c1ccc(Br)cc1)OCc1ccccc1 [(phenylmethyl) 2-[[(Z)-2-[(4-bromophenyl)carbonylamino]-3-phenyl-prop-2-enoyl]amino]ethanoate] | 6.17
O=C(Nc1ccc2oc(-c3ccccc3)nc2c1)c1ccncc1 [MLS000109492] | 5.49
CC1Cc2ccccc2N1C(=O)c1ccc(N2CCCC2)c([N+](=O)[O-])c1 (stereo not given) [(2-methyl-2,3-dihydroindol-1-yl)-(3-nitro-4-pyrrolidin-1-yl-phenyl)methanone] | 6.44
O=C(CSc1nnc(Cc2ccccc2)o1)c1ccc(F)cc1 [1-(4-fluorophenyl)-2-[[5-(phenylmethyl)-1,3,4-oxadiazol-2-yl]sulfanyl]ethanone] | 5.41
CS(=O)(=O)N(CC(=O)N1CCN(c2ccc(F)cc2)CC1)c1ccc(F)c(Cl)c1 [MLS000531433] | 5.12
CSCCC(=O)N1CCCC(CNC(=O)c2ccc(-c3ccccc3)cc2)C1 (stereo not given) [MLS000733867] | 5.29
Cc1oc(-c2ccccc2)nc1C[S+]([O-])CC(=O)N1CCc2ccccc2C1 (stereo not given) [1-(3,4-dihydro-1H-isoquinolin-2-yl)-2-[(5-methyl-2-phenyl-1,3-oxazol-4-yl)methylsulfinyl]ethanone] | 5.31
O=C(NC(=S)Nc1nc(-c2cccc([N+](=O)[O-])c2)cs1)c1cc(Cl)ccc1Cl [2,5-bis(chloranyl)-N-[[4-(3-nitrophenyl)-1,3-thiazol-2-yl]carbamothioyl]benzamide] | 4.46

same assay, conditions: inactive by the depositor's call

SMILES | pEC50
O=[N+]([O-])c1ccc(NC2CCN(Cc3ccccc3)CC2)c([N+](=O)[O-])c1 [(1-benzyl-4-piperidyl)-(2,4-dinitrophenyl)amine] | 5.26
Cc1cccc(N2CCN(C(=O)Cn3ccc4ccccc4c3=O)CC2)c1C [2-[2-[4-(2,3-dimethylphenyl)-1-piperazinyl]-2-oxoethyl]-1-isoquinolinone] | 3.59
